Measurements from paper PMC11380953, “Multivalent, calcium-independent binding of surfactant protein A and D to sulfated glycosaminoglycans of the alveolar epithelial glycocalyx” (American Journal of Physiology - Lung Cellular and …, 2024).

Columns and labels:
[1] = system: human SP-A; design: method as in Haagsman et al.; [18]; conditions: ref Haagsman et al., [18]; cited from earlier work
[2] = target: T1, rhSP-D (human recombinant SP-D) (Homo sapiens, UniProt P35247); assay: Microscale thermophoresis (MST) binding to rhSP-D; conditions: apparent KD at protein 9 nM, 25°C, read-out: KD (MST Measurements) ±Kd confidence
T1 construct: host or cells: CHO cells
T1 sequence (P35247 21-375): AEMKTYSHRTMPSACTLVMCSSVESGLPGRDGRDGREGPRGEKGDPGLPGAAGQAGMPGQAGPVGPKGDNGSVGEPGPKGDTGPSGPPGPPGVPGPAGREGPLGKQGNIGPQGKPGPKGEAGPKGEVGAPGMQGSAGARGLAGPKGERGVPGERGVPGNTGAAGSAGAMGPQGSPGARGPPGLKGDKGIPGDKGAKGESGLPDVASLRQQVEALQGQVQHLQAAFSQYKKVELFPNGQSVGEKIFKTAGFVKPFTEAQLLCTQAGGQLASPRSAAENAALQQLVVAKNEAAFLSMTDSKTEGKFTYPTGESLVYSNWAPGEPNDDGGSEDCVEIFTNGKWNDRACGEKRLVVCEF
Experimental: (§1) Human-isolated and recombinant proteins were labeled using the Monolith Protein Labeling Kit RED-NHS according to the manufacturer’s instructions. This kit reagent reacts with lysine residues present in the sequence of the protein, as the dye carries a reactive NHS-ester group. Briefly, as all the proteins were in a Tris buffer solution, the buffer solution was exchanged to a HEPES-based buffer with the A-Column provided in the kit. Then, 10 µM solution of protein was incubated with a threefold excess of dye in 100 µL for 30 min at room temperature protected from light. The labeled protein was separated from the free dye using the B-Column provided in the kit. The concentration of the labeled protein {c(M) = [A205 − (A650 × 0.19)]/[31 × MWprotein]) and the degree of labeling [DOL = A650/(195.000 M^−1cm^−1 × c(M)] were calculated according to the manufacturer’s instruction, measuring absorption at 205 nm (for the protein) and 650 nm (for the dye).
(§2) Thermophoresis is the phenomenon of movement of particles along a temperature gradient. Solvated molecules move from higher to lower temperature. This movement or depletion of molecules from the heat is quantified by the Soret coefficient ST: Chot/Ccold = exp (−STΔT). The depletion of molecules depends on the interface between molecule and solvent. Therefore, thermophoresis monitors changes in size, charge, and solvation entropy of molecules. In this regard, the thermophoresis or movement of a protein is different from a protein-ligand complex ([35]). Microscale or miniaturized thermophoresis allows to monitor molecular interaction in only a few microliters. For this method, the fluorescently labeled protein is mixed with a decreasing concentration of a ligand in 16 glass capillaries. The initial fluorescence is measured (Fcold), then an infrared (IR) laser beam is switched on and focused on the center of the first capillary, where the temperature gradient is created from the center to the walls of the capillary. At the same time, a dichroic mirror allows fluorescence from the labeled protein to be monitored (Fhot). The rate of fluorescence change is related to the amount of protein-ligand complex form, which depends on the ligand concentration, due to changes in size, charge, or hydration shell of the protein-ligand complex. The dissociation constant KD is calculated from the binding curve derived by plotting the normalized fluorescence (FNorm) at a given time after the start of the thermophoresis against the respective ligand concentration ([33], [34], [36]).
(§3) Samples were measured in a Monolith NT.115, using Premium Capillaries (MO-K025) and Monolith Protein labeling kit RED-NHS (MO-L011) all from NanoTemper Technologies (Munich, Germany). Solutions of a 3X concentrated MST buffer (15 mM Tris, 300 mM NaCl, 0.3% Tween 20, 15 mM CaCl2, pH 7.4), sugars (270 mM) or GAG (30 µM) solution, and protein solution (27 nM) were prepared separately. When a different concentration was used, a threefold concentration of the solution was prepared. Afterward, sugars and GAG solutions were diluted 1:2 with water in a series of 16 steps. For the measurement, 3 µL of each prepared component (3 µL MST buffer, 3 µL GAG solution, and 3 µL labeled protein) was mixed, centrifuged shortly to eliminate precipitates, and loaded into a glass capillary. The final concentrations of the sugars were thus between 90 –and 0.00275 mM or GAGs 10 and 0.000305 µM for GAGs, respectively. The 16 capillaries were loaded in the Monolith NT.115 and measurements were performed with a 40% LED power and medium MST power at 25°C.
(§4) Every set of 16 capillaries was prepared in 3–6 replicates (technical replicates) and measured. The replicate measures of every capillary were plotted against concentration and outliers were excluded, using the MO Affinity Analysis 3 v01 software (NanoTemper Technologies, Munich, Germany). […]

[3] = target: T2, hSP-A (human SP-A, isolated from BAL of PAP patient) (Homo sapiens, UniProt Q8IWL1+Q8IWL2); assay: Microscale thermophoresis (MST) binding to hSP-A; conditions: for Kd: hSP-A, apparent KD at protein 9 nM, 25°C, read-out: KD (MST Measurements) ±Kd confidence
T2 construct: Human PAP patient, BAL isolated; from tissue; host or cells: bronchoalveolar lavage fluid of a patient with pulmonary alveolar proteinosis
Experimental: as §1, §2, §3, §4

[4] = system: recombinant human SP-D; design: method as in van Eijk et al.; [42]; conditions: ref van Eijk et al., [42], read-out: IC50 mean ± SE; cited from earlier work
[5] = system: human SP-A; design: method as in Haurum et al.; [41]; conditions: ref Haurum et al., [41], read-out: IC50 mean ±SD; cited from earlier work
[6] = system: human SP-D; design: method as in Lu et al.; [19]; conditions: ref Lu et al., [19]; cited from earlier work
[7] = system: recombinant construct containing the N-terminal tagged fusion protein +neck and CRD of human SP-D; design: method as in Crouch et al. 2006 [47]; conditions: ref Crouch et al. 2006 [47], read-out: I50 mean ± SE; cited from earlier work

T2 sequence (Q8IWL2 21-248): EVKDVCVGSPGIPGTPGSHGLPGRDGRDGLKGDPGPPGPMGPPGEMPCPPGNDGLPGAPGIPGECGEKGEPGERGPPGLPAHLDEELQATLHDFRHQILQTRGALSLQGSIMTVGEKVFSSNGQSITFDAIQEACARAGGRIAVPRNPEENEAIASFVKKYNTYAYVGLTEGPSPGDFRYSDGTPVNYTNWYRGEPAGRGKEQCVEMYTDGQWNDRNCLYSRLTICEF
T2 sequence (Q8IWL1 21-248): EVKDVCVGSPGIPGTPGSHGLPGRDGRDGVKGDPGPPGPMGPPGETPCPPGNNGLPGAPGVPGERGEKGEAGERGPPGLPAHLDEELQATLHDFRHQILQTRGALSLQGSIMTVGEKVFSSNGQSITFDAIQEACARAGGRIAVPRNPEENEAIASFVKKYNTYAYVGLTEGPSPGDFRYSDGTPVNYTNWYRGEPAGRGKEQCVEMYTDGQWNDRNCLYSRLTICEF

Row | SMILES | Kd [2] | Kd [3] | binding of hSP-A to sugar, calcium dependence ([3]; MST, 0-10 mM calcium, 0-20 mM EDTA (Fig. 1D, E)) | Amount of SP-A bound [1] | IC50 [4] | IC50 [5] | IC50 [6] | IC50 [7]
1 | O=C[C@H](O)[C@@H](O)[C@@H](O)[C@H](O)CO [Gal, D(+)-galactose] | 0.82 mM | 1.94 mM | only seen in the presence of calcium | 100% | 7.9 ± 3.8 mM |  | 22 mM | 10 ± 2 mM
2 | CC(=O)N[C@H]1C(O)O[C@H](CO)[C@H](O)[C@@H]1O (stereo partly drawn) [GalNAc, N-acetyl-D-galactosamine] | 0.39 mM | 7.27 mM |  | 7% |  |  |  | 
3 | OC[C@@H]1OC(O)[C@@H](O)[C@H](O)[C@H]1O (stereo partly drawn) [Glc, L(−)-glucose] | 0.12 mM | 1.39 mM |  | 100% | 4 ± 1 mM | 30 ± 1 mM | 9.6 mM | 4.1 ± 0.9 mM
4 | OC[C@H]1O[C@H](O[C@H]2[C@H](O)[C@@H](O)[C@H](O)O[C@@H]2CO)[C@H](O)[C@@H](O)[C@@H]1O [Maltose, D(+)-maltose] | 0.45 mM | 0.03 mM |  |  | 4.1 ± 0.9 mM | 23 ± 5 mM | 5.1 mM | 2.7 ± 0.4 mM
5 | OC[C@H]1OC(O)[C@@H](O)[C@@H](O)[C@@H]1O (stereo partly drawn) [Man, D(+)-mannose] | 0.02 mM | 0.14 mM |  | 95 ± 10% | 2.9 ± 0.4 mM | 39 ± 3 mM | 7.5 mM | 5.3 ± 0.5 mM
6 | CC(=O)N[C@@H]1C(O)O[C@H](CO)[C@@H](O)[C@@H]1O (stereo partly drawn) [ManNAc, N-acetyl-D-mannosamine monohydrate] | 5.39 mM | 0.06 mM |  |  | 1.8 ± 0.3 mM | 8 ± 1 mM |  | 2.1 ± 0.4 mM

The remaining compounds from weak to strong by Kd [2], led by results:

Row | Kd [2] | Kd [3] | binding of hSP-A to sugar, calcium dependence ([3]; MST, 0-10 mM calcium, 0-20 mM EDTA (Fig. 1D, E)) | SMILES | Amount of SP-A bound [1] | IC50 [4] | IC50 [5] | IC50 [6] | IC50 [7]
7 | 0.37 mM | 4.07 mM |  | C[C@H](O)[C@@H](O)[C@@H](O)[C@H](O)C=O [Fuc, L-fucose] | 100% | 4.4 ± 0.1 mM | 22 ± 1 mM | 6.5 mM | 
8 | 0.27 mM | 0.21 mM |  | CC(=O)N[C@H]1[C@H]([C@H](O)[C@H](O)CO)OC(O)(C(=O)O)C[C@@H]1O (stereo partly drawn) [Neu5Ac, N-acetyl-neuraminic acid] |  |  |  |  | 
9 | 0.13 mM | 0.16 mM |  | CC(=O)N[C@@H]1[C@@H](O)[C@H](O)[C@@H](CO)O[C@@H]1O [GlcNAc, N-acetyl-D-glucosamine] | 2% | 13.5 ± 4.5 mM |  | 28.5 mM | 14 ± 2 mM
10 | 0.005 mM | 0.09 mM |  | O=C[C@H](O)[C@@H](O)[C@H](O)[C@H](O)C(=O)O [GlcAc, D-glucuronic acid] |  |  |  |  | 
